# Read-outs that look alike come from different tables or passages of the source.
# How the values were obtained:
# [1] = target: Cyclophilin A (CypA) (Homo sapiens, UniProt P62937); assay: Fluorescence polarization cyclophilin A binding assay
# Method: (§1) This was determined using a fluorescence polarization assay ([12]).
# Fluorescence Polarization assay.
# (§2) Briefly, titration of a single probe concentration
# measure binding affinities.
# FP -probe. Enzyme, inhibitor and
# (ph7.4)) supplemented with 1 mM PMSF.
# [2] = tested on: mitochondrial permeability transition pore (mPTP); assay: Calcium retention capacity (CRC) assay in isolated liver mitochondria; format: biochemical, rat; conditions: Table S4 / Fig. S2; rat liver mitochondria; 500 nM; (Treated-NonTreated)/NonTreated)*100
# [3] = Pharmacokinetic study, plasma and brain levels by LC-MS/MS; conditions: mice; for level at 1 h / level at 4 h: ABH, mouse, ip;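 on all read-outs here: ABH mice, four per group, dosed intraperitoneally, plasma and brain taken at set times after euthanasia, drug levels quantified by LC-MS/MS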
# Method: (§3) The remaining five compounds were evaluated for plasma and brain levels in a pharmacokinetic experiment in mice.
# Pharmacokinetic analysis.
# (Cyprotex UK) using LCMSMS.
# [4] = target: hERG (Homo sapiens, UniProt Q12809); assay: hERG inhibition; format: biochemical; conditions: for inhibition at 25 µM: hERG (% inhibition at 25 μM)
# hERG, sequence (Q12809 whole entry): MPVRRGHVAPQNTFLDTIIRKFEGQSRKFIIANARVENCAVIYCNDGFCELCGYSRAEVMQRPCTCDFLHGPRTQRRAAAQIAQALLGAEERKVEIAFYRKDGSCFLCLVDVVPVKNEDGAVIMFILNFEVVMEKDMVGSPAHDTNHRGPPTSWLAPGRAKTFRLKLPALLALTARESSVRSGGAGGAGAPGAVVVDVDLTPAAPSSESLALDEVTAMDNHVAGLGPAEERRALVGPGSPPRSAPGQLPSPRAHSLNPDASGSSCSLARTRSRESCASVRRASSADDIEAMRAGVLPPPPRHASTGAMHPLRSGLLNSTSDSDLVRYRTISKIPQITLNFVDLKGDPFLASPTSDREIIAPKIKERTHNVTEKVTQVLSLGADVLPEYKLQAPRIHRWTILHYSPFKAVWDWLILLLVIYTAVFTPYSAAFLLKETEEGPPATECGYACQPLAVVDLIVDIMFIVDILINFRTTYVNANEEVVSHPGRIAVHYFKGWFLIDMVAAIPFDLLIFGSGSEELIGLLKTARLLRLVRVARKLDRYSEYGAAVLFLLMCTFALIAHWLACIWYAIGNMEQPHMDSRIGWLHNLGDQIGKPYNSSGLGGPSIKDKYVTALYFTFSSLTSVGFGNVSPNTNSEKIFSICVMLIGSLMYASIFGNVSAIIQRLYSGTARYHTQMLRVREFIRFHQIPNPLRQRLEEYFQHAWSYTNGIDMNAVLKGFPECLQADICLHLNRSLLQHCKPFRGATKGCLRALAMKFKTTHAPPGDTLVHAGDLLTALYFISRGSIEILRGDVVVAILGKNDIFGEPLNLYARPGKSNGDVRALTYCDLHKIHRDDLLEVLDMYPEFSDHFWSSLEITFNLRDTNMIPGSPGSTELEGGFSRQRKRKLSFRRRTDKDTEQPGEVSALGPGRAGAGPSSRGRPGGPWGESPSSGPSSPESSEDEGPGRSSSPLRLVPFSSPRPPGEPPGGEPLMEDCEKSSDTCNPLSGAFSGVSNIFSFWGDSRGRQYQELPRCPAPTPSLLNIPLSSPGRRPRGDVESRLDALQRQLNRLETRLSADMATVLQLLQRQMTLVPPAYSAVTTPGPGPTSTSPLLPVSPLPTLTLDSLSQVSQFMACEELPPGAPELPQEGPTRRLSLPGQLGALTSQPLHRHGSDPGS
# [5] = target: CypD (Homo sapiens, UniProt P30405); assay: Fluorescence polarization cyclophilin D binding assay
# CypD, sequence (P30405 30-207): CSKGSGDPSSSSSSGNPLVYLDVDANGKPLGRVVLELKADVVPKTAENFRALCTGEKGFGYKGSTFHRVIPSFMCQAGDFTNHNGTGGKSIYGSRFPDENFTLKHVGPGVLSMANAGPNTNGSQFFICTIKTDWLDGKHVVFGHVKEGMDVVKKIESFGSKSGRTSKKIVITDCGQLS
# Method: as §1
# Fluorescence Polarization assay.
# as §2
# measure binding affinities.
# [6] = mouse, in vivo, 10 mg/kg; for Cl_obs: ip
# Method: as §3
# Pharmacokinetic analysis.
# (Cyprotex UK) using LCMSMS.
# [7] = Hepatocyte clearance (mouse); format: in vitro ADME; conditions: mouse hepatocytes
# [8] = Brain tissue binding (fraction unbound); format: in vitro ADME; conditions: read-out: Brain tissue (fu)
# Excerpt: Table 1. Key data for lead optimization. SD, standard deviation of the mean; SE, standard error of the mean; fu, fraction unbound; ND, not determined. | column: Brain tissue (fu)
# [9] = mouse, in vivo, ip, 10 mg/kg
# Method: as §3
# Pharmacokinetic analysis.
# (Cyprotex UK) using LCMSMS.
# [10] = in vivo; conditions: ABH, mouse, ip, 10 mg/kg; for level at 24 h: Brain concentrations at 24 hours
# Method: as §3
# Pharmacokinetic analysis.
# (Cyprotex UK) using LCMSMS.
# [11] = Hepatocyte clearance (human); format: in vitro ADME; conditions: human hepatocytes
# [12] = Plasma protein binding (fraction unbound); format: in vitro ADME; conditions: read-out: Plasma protein (fu)
# [13] = Table S3, 4-aza substituted quinolinium salts, fluorescence polarization, read-out: Ki (nM) CypA
# [14] = Table S7, focused SAR set, read-out: CypD Ki
# [15] = Table S7, focused SAR set, read-out: CypA Ki
# [16] = Table S2, 4-oxa substituted and O-linked quinolinium salts, fluorescence polarization, read-out: Ki (nM), Cyclophilin A binding affinity
# Cyclophilin A (CypA), sequence (P62937 whole entry): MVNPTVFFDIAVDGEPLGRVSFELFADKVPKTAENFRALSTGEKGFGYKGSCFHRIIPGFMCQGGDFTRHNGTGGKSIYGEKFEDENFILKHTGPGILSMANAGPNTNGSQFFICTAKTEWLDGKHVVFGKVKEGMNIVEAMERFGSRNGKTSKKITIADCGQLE
structure (smiles),measurement,setting,value
CC[C@@H]1NC(=O)[C@H]([C@H](O)[C@H](C)CC=CCCC[n+]2ccc(N(C)Cc3ccccc3)c3ccccc32)N(C)C(=O)[C@H](C(C)C)N(C)C(=O)[C@H](CC(C)C)N(C)C(=O)[C@H](CC(C)C)N(C)C(=O)[C@@H](C)NC(=O)[C@H](C)NC(=O)[C@H](CC(C)C)N(C)C(=O)[C@H](C(C)C)NC(=O)[C@H](CC(C)C)N(C)C(=O)CN(C)C1=O [JP1-028],Ki,[1]; [13],35 ± 3 nM
CC[C@@H]1NC(=O)[C@H]([C@H](O)[C@H](C)CC=CCCC[n+]2ccc(NCCc3ccccc3)c3ccccc32)N(C)C(=O)[C@H](C(C)C)N(C)C(=O)[C@H](CC(C)C)N(C)C(=O)[C@H](CC(C)C)N(C)C(=O)[C@@H](C)NC(=O)[C@H](C)NC(=O)[C@H](CC(C)C)N(C)C(=O)[C@H](C(C)C)NC(=O)[C@H](CC(C)C)N(C)C(=O)CN(C)C1=O [JP1-037H],Ki,[1]; [13],17 ± 5 nM
same,CRC inhibition %,[2],26.53%
CC[C@@H]1NC(=O)[C@H]([C@H](O)[C@H](C)CC=CCCC[n+]2ccc(N(C)CCc3ccccc3)c3ccccc32)N(C)C(=O)[C@H](C(C)C)N(C)C(=O)[C@H](CC(C)C)N(C)C(=O)[C@H](CC(C)C)N(C)C(=O)[C@@H](C)NC(=O)[C@H](C)NC(=O)[C@H](CC(C)C)N(C)C(=O)[C@H](C(C)C)NC(=O)[C@H](CC(C)C)N(C)C(=O)CN(C)C1=O [JP1-037],Ki,[1]; [13],4.4 ± 2 nM
same,CRC inhibition %,[2],20.61%
CC[C@@H]1NC(=O)[C@H]([C@H](O)[C@H](C)C/C=C/CCC[n+]2ccc(NCCOc3ccccc3)c3ccccc32)N(C)C(=O)[C@H](C(C)C)N(C)C(=O)[C@H](CC(C)C)N(C)C(=O)[C@H](CC(C)C)N(C)C(=O)[C@@H](C)NC(=O)[C@H](C)NC(=O)[C@H](CC(C)C)N(C)C(=O)[C@H](C(C)C)NC(=O)[C@H](CC(C)C)N(C)C(=O)CN(C)C1=O [JP1-068],level at 1 h,"[3]; brain, Brain ng/mL, 1 h",110 ng/mL
same,level at 4 h,"[3]; brain, Brain ng/mL",76 ng/mL
same,level at 1 h,"[3]; plasma, Plasma (ng/mL), 1 h",6410 ng/mL
same,level at 4 h,"[3]; plasma, Plasma (ng/mL)",6250 ng/mL
same,Brain,[3]; 1 h,110 ng/mL
same,Ki,[1]; [13],10 nM
same,IC50,[4],1000 to 2000 nM
same,Ki,"[5]; Table S3, fluorescence polarization, biotinylated-CsA probe, read-out: Ki (nM) CypD",38.1 nM
CC[C@@H]1NC(=O)[C@H]([C@H](O)[C@H](C)CC=CCCC[n+]2ccc(N3CCCC3)c3ccc(C(F)(F)F)cc32)N(C)C(=O)[C@H](C(C)C)N(C)C(=O)[C@H](CC(C)C)N(C)C(=O)[C@H](CC(C)C)N(C)C(=O)[C@@H](C)NC(=O)[C@H](C)NC(=O)[C@H](CC(C)C)N(C)C(=O)[C@H](C(C)C)NC(=O)[C@H](CC(C)C)N(C)C(=O)CN(C)C1=O [JP1-140],Ki,[5]; [14],76 ± 8 nM
CC[C@@H]1NC(=O)[C@H]([C@H](O)[C@H](C)C/C=C/CCC[n+]2ccc(N3CCOCC3)c3ccccc32)N(C)C(=O)[C@H](C(C)C)N(C)C(=O)[C@H](CC(C)C)N(C)C(=O)[C@H](CC(C)C)N(C)C(=O)[C@@H](C)NC(=O)[C@H](C)NC(=O)[C@H](CC(C)C)N(C)C(=O)[C@H](C(C)C)NC(=O)[C@H](CC(C)C)N(C)C(=O)CN(C)C1=O [JP1-141],Toxicity in the pharmacokinetic experiment,[6],some toxicity
same,Cl_obs,[6],9.57 × 10^−05 (mg/kg)/(ng/ml).hour
same,hepatocyte CLint,[7],3.59 µL/min/1e6 cells
same,fraction unbound,[8],0.01
same,Ki,[1]; [15],29 nM
same,AUC(0-inf),[9],105000 ng·h/mL
same,AUC(0-t),[9],103000 ng·h/mL
same,half-life,[9],4.04 h
same,hERG (% inhibition at 25 μM),[4]; 25 μM,63.9%
same,inhibition at 25 µM,[4]; 25 μM,65%
same,level at time molar at 24 h,[10],642 nM
same,level at 24 h,[10],927 ng/mL
same,hepatocyte CLint,[11],3.62 µL/min/1e6 cells
CC[C@@H]1NC(=O)[C@H]([C@H](O)[C@H](C)CC=CCCC[n+]2ccc(N3CCCC3)c3ccccc32)N(C)C(=O)[C@H](C(C)C)N(C)C(=O)[C@H](CC(C)C)N(C)C(=O)[C@H](CC(C)C)N(C)C(=O)[C@@H](C)NC(=O)[C@H](C)NC(=O)[C@H](CC(C)C)N(C)C(=O)[C@H](C(C)C)NC(=O)[C@H](CC(C)C)N(C)C(=O)CN(C)C1=O [JP1-159],Ki,[1]; [15],104 nM
CC[C@@H]1NC(=O)[C@H]([C@H](O)[C@H](C)C/C=C/CCC[n+]2ccc(N3CCCCC3)c3ccccc32)N(C)C(=O)[C@H](C(C)C)N(C)C(=O)[C@H](CC(C)C)N(C)C(=O)[C@H](CC(C)C)N(C)C(=O)[C@@H](C)NC(=O)[C@H](C)NC(=O)[C@H](CC(C)C)N(C)C(=O)[C@H](C(C)C)NC(=O)[C@H](CC(C)C)N(C)C(=O)CN(C)C1=O [JP1-166],Cl_obs,[6],1.67 × 10^−04 (mg/kg)/(ng/ml).hour
same,fraction unbound,[12],0.43
same,hepatocyte CLint,[7],9.47 µL/min/1e6 cells
same,Ki,[1]; [15],31 ± 3 nM
same,AUC(0-inf),[9],59900 ng·h/mL
same,AUC(0-t),[9],55000 ng·h/mL
same,half-life,[9],6.75 h
same,inhibition at 25 µM,[4]; 25 μM,31.4%
same,level at time molar at 24 h,[10],86 nM
same,level at 24 h,[10],124 ng/mL
same,hepatocyte CLint,[11],8.01 µL/min/1e6 cells
CC[C@@H]1NC(=O)[C@H]([C@H](O)[C@H](C)C/C=C/CCC[n+]2ccc(N(C)C)c3ccccc32)N(C)C(=O)[C@H](C(C)C)N(C)C(=O)[C@H](CC(C)C)N(C)C(=O)[C@H](CC(C)C)N(C)C(=O)[C@@H](C)NC(=O)[C@H](C)NC(=O)[C@H](CC(C)C)N(C)C(=O)[C@H](C(C)C)NC(=O)[C@H](CC(C)C)N(C)C(=O)CN(C)C1=O [JP1-180],Cl_obs,[6],1.61 × 10^−04 (mg/kg)/(ng/ml).hour
same,fraction unbound,[12],0.17
same,hepatocyte CLint,[7],4.07 µL/min/1e6 cells
same,AUC(0-inf),[9],62100 ng·h/mL
same,AUC(0-t),[9],59300 ng·h/mL
same,half-life,[9],5.06 h
same,inhibition at 25 µM,[4]; 25 μM,9.75%
same,Ki,[5]; [14],77 ± 46 nM
same,level at time molar at 24 h,[10],142 nM
same,level at 24 h,[10],196 ng/mL
same,hepatocyte CLint,[11],4.65 µL/min/1e6 cells
"CC[C@@H]1NC(=O)[C@H]([C@H](O)[C@H](C)C/C=C/CCC[n+]2cccc3ccccc32)N(C)C(=O)[C@H](C(C)C)N(C)C(=O)[C@H](CC(C)C)N(C)C(=O)[C@H](CC(C)C)N(C)C(=O)[C@@H](C)NC(=O)[C@H](C)NC(=O)[C@H](CC(C)C)N(C)C(=O)[C@H](C(C)C)NC(=O)[C@H](CC(C)C)N(C)C(=O)CN(C)C1=O [JW47, reference compound]",level at 4 h,"[3]; plasma, Plasma (ng/mL)",4900 ng/mL
CC[C@@H]1NC(=O)[C@H]([C@H](O)[C@H](C)CC=CCCC[n+]2ccc(OCCc3ccccc3)c3ccccc32)N(C)C(=O)[C@H](C(C)C)N(C)C(=O)[C@H](CC(C)C)N(C)C(=O)[C@H](CC(C)C)N(C)C(=O)[C@@H](C)NC(=O)[C@H](C)NC(=O)[C@H](CC(C)C)N(C)C(=O)[C@H](C(C)C)NC(=O)[C@H](CC(C)C)N(C)C(=O)CN(C)C1=O [TWH30],Ki,[1]; [16],267 ± 16 nM
same,CRC inhibition %,[2],27.89%
CC[C@@H]1NC(=O)[C@H]([C@H](O)[C@H](C)CC=CCCCOc2cc[n+](CCCc3ccccc3)c3ccccc23)N(C)C(=O)[C@H](C(C)C)N(C)C(=O)[C@H](CC(C)C)N(C)C(=O)[C@H](CC(C)C)N(C)C(=O)[C@@H](C)NC(=O)[C@H](C)NC(=O)[C@H](CC(C)C)N(C)C(=O)[C@H](C(C)C)NC(=O)[C@H](CC(C)C)N(C)C(=O)CN(C)C1=O [TWH43],Ki,[1]; [16],218 ± 57 nM
same,CRC inhibition %,[2],16.28%
CC[C@@H]1NC(=O)[C@H]([C@H](O)[C@H](C)CC=CCCC[n+]2ccc(OCCCc3ccc(OC)cc3)c3ccccc32)N(C)C(=O)[C@H](C(C)C)N(C)C(=O)[C@H](CC(C)C)N(C)C(=O)[C@H](CC(C)C)N(C)C(=O)[C@@H](C)NC(=O)[C@H](C)NC(=O)[C@H](CC(C)C)N(C)C(=O)[C@H](C(C)C)NC(=O)[C@H](CC(C)C)N(C)C(=O)CN(C)C1=O [TWH44],Ki,[1]; [16],158 ± 17 nM
same,CRC inhibition %,[2],16.95%
CC[C@@H]1NC(=O)[C@H]([C@H](O)[C@H](C)C/C=C/CCCOc2cc[n+](CCc3ccccc3)c3ccccc23)N(C)C(=O)[C@H](C(C)C)N(C)C(=O)[C@H](CC(C)C)N(C)C(=O)[C@H](CC(C)C)N(C)C(=O)[C@@H](C)NC(=O)[C@H](C)NC(=O)[C@H](CC(C)C)N(C)C(=O)[C@H](C(C)C)NC(=O)[C@H](CC(C)C)N(C)C(=O)CN(C)C1=O [TWH46],Ki,[1]; [16],265 ± 111 nM
CC[C@@H]1NC(=O)[C@H]([C@H](O)[C@H](C)CC=CCCC[n+]2ccc(OCc3ccccc3)c3ccccc32)N(C)C(=O)[C@H](C(C)C)N(C)C(=O)[C@H](CC(C)C)N(C)C(=O)[C@H](CC(C)C)N(C)C(=O)[C@@H](C)NC(=O)[C@H](C)NC(=O)[C@H](CC(C)C)N(C)C(=O)[C@H](C(C)C)NC(=O)[C@H](CC(C)C)N(C)C(=O)CN(C)C1=O [TWH53],Ki,[1]; [16],158 ± 43 nM
same,CRC inhibition %,[2],18.46%
CC[C@@H]1NC(=O)[C@H]([C@H](O)[C@H](C)CC=CCCC[n+]2ccc(OCCOc3ccccc3)c3ccccc32)N(C)C(=O)[C@H](C(C)C)N(C)C(=O)[C@H](CC(C)C)N(C)C(=O)[C@H](CC(C)C)N(C)C(=O)[C@@H](C)NC(=O)[C@H](C)NC(=O)[C@H](CC(C)C)N(C)C(=O)[C@H](C(C)C)NC(=O)[C@H](CC(C)C)N(C)C(=O)CN(C)C1=O [TWH68],Ki,[1]; [16],467 ± 85 nM
same,CRC inhibition %,[2],17.71%

# Source: publication PMC11235165, “Delocalized quinolinium-macrocyclic peptides, an atypical chemotype for CNS penetration” (Science Advances, 2024)
